The source of these data is patent US20210171579A1, “INHIBITOR USING PLANT CYCLOPEPTIDE AS EFFECTIVE COMPONENT FOR LIPID METABOLIC ABNORMALITIES IN CANCER CELLS AND USES THEREOF” (CHINA PHARMACEUTICAL UNIVERSITY, priority 2017, published 2021).

Data set [1] concerns human liver cancer HepG2 cell line. Briefly: Indexes related to lipid metabolism in human liver cancer cells (commercial kits). The settings on record: HepG2, 24 h treatment, FIG. 2. Format: cell-based. On the procedure:
(§1) In-vivo antineoplastic activity and activity of inhibiting abnormal lipid metabolism of tumors of the RAs are verified by establishing a nude mouse subcutaneously transplanted tumor model with liver cancer cells.
An overnight human liver cancer HepG2 cell line is cultivated by a 10% FBS medium. Pancreatin is added for digestion to form a cell suspension, which is inoculated onto a 6-well plate according to an appropriate concentration. After 24 h, the RA-V or the RA-XII is added for treatment for 24 h. Digestion is conducted with the pancreatin. Centrifugation is conducted for 5 to 10 min at a room temperature and 2000 rpm, and cells are collected. The cells are resuspended once with pre-cooled 1×PBS (4° C.), centrifuged for 5 to 10 min at 2000 rpm, and washed. By adopting commercial kits, contents of total cholesterol and triglycerides in the cells are detected through a single reagent GPO-PAP method respectively, and contents of low-density lipoproteins and high-density lipoproteins in the cells are detected through a double-reagent direct method (the commercial kits are purchased from the Nanjing Jiancheng Bioengineering Institute, with article numbers of A111-1, A110-1, A113-1 and A112-1 respectively).

Data set [2] has as its system tissues of HepG2 subcutaneously transplanted tumors. Briefly: Lipid droplets in tissues of subcutaneously transplanted tumors, Oil Red staining. Format: in vivo, BABL/c nude mice. The settings on record: tumor tissues from Embodiment 4, Oil Red staining of cryosections, FIG. 6. As to the method: (§2) HepG2 is diluted into […] with a serum-free MEM. 100 μL of cell suspension is taken and inoculated to left armpits of BABL/c nude mice subcutaneously, and grows for 7 days to form a tumor-bearing mouse model. Inoculated and well-grown tumor-bearing mice are grouped at random, and dosed with the RA-XII once through caudal veins every other day. While dosing, sizes of tumors are measured with a vernier caliper (a tumor volume=a long diameter×a short diameter^2/2), and weights of the nude mice are recorded and counted. The used animals are killed after dosed for 21 days, and tumors are peeled and photographed.
Tissues of the tumors obtained in Embodiment 4 are taken and embedded by OCT and then rapidly cooled. Cryostat serial sectioning is conducted with a thickness being 20 μm. Drying is conducted for 30 min at a room temperature. Fixing is conducted with 4% paraformaldehyde for 30 min. Staining is conducted with an Oil Red working solution for about 30 min at the room temperature. Washing is conducted with PBS twice. Sections are sealed with a glycerin jelly. Overnight drying is conducted, and pictures are taken under a microscope.

In data set [3] the test system is human liver cancer HepG2 cell line. Briefly: Growth inhibition of human liver cancer cells, SRB method. In kind it is cell-based. The settings on record: HepG2, 24 h treatment, FIG. 1. As to the method: as §1
Cell viability is determined by adopting an SRB method. An overnight human liver cancer HepG2 cell line (purchased from the Cell Bank of Committee on Type Culture Collection of Chinese Academy of Sciences) is cultivated by a 10% FBS medium. Pancreatin is added for digestion to form a cell suspension, which is inoculated onto a 96-well plate according to an appropriate concentration at 100 μl/well. Cultivation is conducted in a CO2 incubator for 24 h until cells adhere to walls completely. Different final concentrations of RA-XII are added, after acting for 24 h, 50 μl of a 4° C. pre-cooled TCA solution (30%, w/v) is added into each well for fixing of the cells, and a final concentration of the TCA solution is 10%. The 96-well plate is transferred into a 4° C. refrigerator for fixing for 1 h after still standing for 5 min. The 96-well plate is taken out, washed 5 times with deionized water, and aired at a room temperature. […] Optical densities are determined at 540 nm by adopting a microplate reader.

Data set [4] shares this test system. Briefly: Lipid droplet formation in human liver cancer cells, Oil Red staining. In kind it is cell-based. The settings on record: HepG2, 24 h treatment, FIG. 3. On the procedure:
as §1
0.5 g of pre-ground and pre-crushed dried Oil Red powder (purchased from Sigma Company) is weighed, and dissolved in a small amount of isopropanol. Then isopropanol is added to reach 100 ml. A solution is sealed in a brown bottle (or packaged with tin foil paper for avoiding light) for preservation at 4° C. as a storage solution, which may be preserved for a long time. When using, 6 ml of the solution is taken, and 4 ml of tri-distilled water is added to be evenly mixed. The mixed solution is filtered by qualitative filter paper into a working solution, which is used up within a few hours after diluted. An overnight human liver cancer HepG2 cell line is cultivated by a 10% FBS medium. Pancreatin is added for digestion to form a cell suspension, which is inoculated onto a 24-well plate according to an appropriate concentration. After 24 h, the RA-XII is added for treatment for 24 h. A cultivation solution is poured out carefully and slowly. Fixing is then conducted with 4% paraformaldehyde for 30 min. Staining is conducted with an Oil Red working solution for about 30 min at the room temperature. Washing is conducted with PBS twice. Pictures are taken under a microscope.

The test system of data set [5] is HepG2 subcutaneously transplanted tumors. Briefly: In-vivo antineoplastic test, nude mouse subcutaneously transplanted tumor model. Further details: species or system BABL/c nude mice. The settings on record: caudal vein dosing every other day, 21 days, FIG. 4. As to the method:
as §1, §2

The subject of data set [6] is tissues of HepG2 subcutaneously transplanted tumors. Briefly: Indexes related to lipid metabolism in tissues of subcutaneously transplanted tumors. Format: in vivo, BABL/c nude mice. To be noted: tumor tissues from Embodiment 4, RIPA lysate, FIG. 5. As to the method: as §2
Tissues of the tumors obtained in Embodiment 4 are taken and lysed with an RIPA lysate. Then contents of cholesterol, triglycerides, low-density lipoproteins and high-density lipoproteins are detected by adopting commercial kits (specific methods are the same as Embodiment 2).

Data set [7] in a line: Weights of nude mice in the in-vivo antineoplastic test. Details: species or system BABL/c nude mice. To be noted: caudal vein dosing every other day, 21 days, FIG. 4. On the procedure:
as §2

With `COc1ccc(C[C@H]2C(=O)N[C@@H](C)C(=O)N(C)C3Cc4ccc(cc4)Oc4cc(ccc4O)C[C@@H](C(=O)N[C@H](C)C(=O)N[C@@H](C)C(=O)N2C)N(C)C3=O)cc1` [RA-V], in data set [1], the “high-density lipoproteins content in cells” value was “no obvious influence”, the “low-density lipoproteins content in cells” value is “obviously inhibit expression”, the “total cholesterol content in cells” value was “obviously inhibit expression” and the “triglycerides content in cells” value is on record as “obviously inhibit expression”.

`COc1ccc(C[C@H]2C(=O)N[C@@H](C)C(=O)N(C)C3Cc4ccc(cc4)Oc4cc(ccc4O[C@@H]4OC(CO)[C@@H](O)[C@H](O)C4O)C[C@@H](C(=O)N[C@H](C)C(=O)N[C@@H](C)C(=O)N2C)N(C)C3=O)cc1` (some centres unmarked) [RA-XII]: in data set [1], the “high-density lipoproteins content in cells” value was “no obvious influence”, the “low-density lipoproteins content in cells” value is listed as “obviously inhibit expression”, the “total cholesterol content in cells” value is recorded as “obviously inhibit expression” and the “triglycerides content in cells” value was “obviously inhibit expression”. For the same compound, the “number of lipid droplets in tumor tissues” value in data set [2] is “obviously reduce the number of the lipid droplets”. Moreover, the “proliferation of tumor cells (cell viability, SRB)” value in data set [3] is recorded as “inhibits rapid proliferation of tumor cells”. Further, the “number of lipid droplets in tumor cells” value in data set [4] is reported as “obviously reduce the number of the lipid droplets”. For the same compound, the “growth speed of subcutaneously transplanted tumors (tumor volume)” value in data set [5] is given as “obviously reduce a growth speed”. Further, in data set [6], the “high-density lipoproteins in tumor tissues” value was “no obvious influence”, the “low-density lipoproteins in tumor tissues” value is “obviously inhibit expression”, the “total cholesterol in tumor tissues” value is “obviously inhibit expression” and the “triglycerides in tumor tissues” value was “obviously inhibit expression”. For the same compound, in data set [7], the “weights of the nude mice” value was “no obvious influence”.
